Results taken from article PMC6751206, “Epigenetic re-wiring of breast cancer by pharmacological targeting of C-terminal binding protein” (Cell Death & Disease, 2019).
pIC50: −log10 of the molar value.

Columns and labels:
[1] = target: T1, CtBP1/CtBP2 heterodimer (Homo sapiens, UniProt P56545+Q13363); experiment: acceptor photobleaching FRET of CtBP1/CtBP2 dimerization in MDA-MB-231 cells; format: cell-based; conditions: 10 μM compound; live-cell heterodimerization read-out
T1 construct: CFP/YFP fusions of CtBP1 and CtBP2 (pSCFP3A, pSYFP2); heterodimer

[2] = target: T1, CtBP1/CtBP2 heterodimer; experiment: as above; format: cell-based; conditions: live-cell heterodimerization read-out; dose-response

| SMILES | FRET signal decrease at 10 μM [1] | pIC50 [2] |
| --- | --- | --- |
| CC(C)C(NC(=O)C(=O)O)C(=O)O (stereo not drawn) [CI19] | significant decrease in the paired CtBP1-YFP/CtBP2-CFP FRET signal, after incubation with CI19, CI22, CI23 or CI24 |  |
| O=C(O)C(=O)Nc1ccccc1 [CI22] | significant decrease in the paired CtBP1-YFP/CtBP2-CFP FRET signal, after incubation with CI19, CI22, CI23 or CI24 |  |
| Nc1nc(C(=O)C(=O)O)cs1 [CI24] |  | 4.70 to 5.00 |
